# Measurements from PMC7264150 (Nature Communications, 2020).
# Biological target: T1, Pl-TcdA1 (Photorhabdus luminescens, UniProt Q9RN43)
# T1 construct: gene tcdA
# Assay type: binding
compound,measurement,value
CC(=O)N[C@H]1C(O)O[C@H](CO)[C@@H](O[C@@H]2O[C@H](CO)[C@H](O)[C@H](O)[C@H]2O[C@@H]2O[C@@H](C)[C@@H](O)[C@@H](O)[C@@H]2O)[C@@H]1O[C@@H]1O[C@@H](C)[C@@H](O)[C@@H](O)[C@@H]1O (stereo partly shown) [Lewis Y],"glycan microarray, AlexaFluor488-labelled toxin",tetrasaccharides Lewis Y and sialyl-Lewis X interacted strongly with Pl-TcdA1
